Measured values from patent US10548911B2, “Small molecule anti-scarring agents” (UNIVERSITY OF ROCHESTER, priority 2014, dated 2020).
“Also recorded” adds a separate entry of the source.

Assays:
[1] = test system: TGFβ induced Smad-luc activity; assay: Smad-luc reporter in human orbital fibroblasts electroporated with control or MKK6(glu) plasmid; format: cell-based; conditions: 250 nM, 24 hours
Protocol: Plasmid DNA was introduced into human fibroblasts by electroporation. Plasmids were electroporated with an Amaxa nucleofector (program U-025) into 1×10^6 cells. The pcDNA3-flag MKK6(glu) plasmid was obtained from Addgene (plasmid 13518, from Roger Davis' lab). After transfection cells were cultured for 12-24 hours and culture medium was subsequently changed to treatment conditions.
To further test if salinomycin targets the p38 pathway to block myofibroblast formation, a plasmid encoding a mutant MKK6 (pcDNA3-flag MKK6(glu)) protein was used. MKK6 phosphorylates and thus activates p38 in response to extracellular signals such as TGFβ or other environmental stresses. The MKK6(glu) protein, which harbors glutamate mutations at amino acid residues serine 207 and threonine 211, is constitutively active and thus phosphorylates p38 irrespective of signal (Raingeaud et al., “MKK3- and MKK6-regulated gene expression is mediated by the p38 mitogen-activated protein kinase signal transduction pathway,” Mol. Cell. Biol. 16:1247-1255 (1996), which is hereby incorporated by reference in its entirety). Thus, if salinomycin is blocking the p38 signaling pathway, MKK6(glu) should overcome the effect of salinomycin. MKK6(glu) was first tested using the SBE4-TK-luc reporter plasmid. The luciferase reporter plasmid was introduced into human fibroblasts along with the MKK6(glu) plasmid or a control plasmid (pcDNA3-GFP). Cells were then treated with vehicle, TGFβ or TGFβ plus 250 nM salinomycin. After 24 hours, luciferase activity was measured (FIG. 6A). […] MKK6(glu) was further tested to assess whether it could attenuate the ability of salinomycin to inhibit p38 phosphorylation. Control or MKK6(glu) plasmids were introduced into human fibroblasts by electroporation and then cells were treated with TGFβ for 24 hours. Following treatment, cells were analyzed for flag-MKK6(glu) expression and phospho-p38 by Western blot (FIG. 6B). […] Samples were analyzed for expression of flag-MKK6(glu), αSMA, calponin and β-tubulin by Western blot (FIG. 6C).

[2] = test system: TGFβ-dependent myofibroblast formation in primary human fibroblasts; assay: Myofibroblast formation assay in primary human fibroblasts (morphology, Western blot) for Spectrum hits; format: cell-based
Protocol: Using the lowest effective dose from the secondary screening assay, PPT (5 μM), ASC (1 μM), BTS (1 μM), and AXD (1 μM) were compared to 0.1 μM SNC using primary human fibroblasts (FIG. 13). The myofibroblast formation assay consists of the following protocol: fibroblasts are treated with the aforementioned small molecules and treated with TGFβ (1 ng/ml) for 72 hours. The cells were then either photographed for morphological analysis or collected, lysed and analyzed by Western blot for the myofibroblast markers alpha-smooth muscle actin (αSMA) and calponin. β-tubulin was used as a loading control.
PPT was used at 1 and 5 μM (lanes 3 and 4), BTS was used at 0.1 and 1 μM (lanes 5 and 6), ASC was used at 0.1 and 1 μM (lanes 7 and 8), SNC was used at 100 nM and 1 μM (lanes 9 and 10), and AXD was used at 0.1 and 1 μM (lanes 11 and 12).

With `CC[C@@H](C(=O)[C@@H](C)[C@@H](O)[C@H](C)[C@@H]1O[C@@H]([C@@H](CC)C(=O)O)CC[C@@H]1C)[C@H]1O[C@]2(C=C[C@@H](O)[C@]3(CC[C@@](C)([C@H]4CC[C@](O)(CC)[C@H](C)O4)O3)O2)[C@H](C)C[C@@H]1C` [salinomycin] the “TGFβ-induced Smad-luc (luciferase) activity” value (“TGFβ-induced Smad-luc” for short) ([1]; constitutively active MKK6(glu) plasmid) was “attenuated the effect of salinomycin; also recorded: unable to block TGFβ-induced luciferase activity”, the “TGFβ-induced Smad-luc” value ([1]; control (GFP) plasmid) was “completely blocked TGFβ-induced luciferase activity” and the “TGFβ-induced Smad-luc” value ([1]; control (GFP) plasmid, listed as Salinomycin) was “blocked TGFβ induced Smad-luc activity”. For the same molecule, the “α-SMA and calponin expression in human fibroblasts” value ([2]; FIG. 14 lanes: PPT 1, 5 uM, BTS, ASC, AXD 0.1, 1 uM, SNC 100 nM, 1 uM) was “inhibit β-dependent α-SMA and calponin expression”, the “expression of Thy1” value ([2]; both doses, 100 nM and 1 μM) was “inhibits expression of Thy1” and the “TGFβ-dependent αSMA and calponin (marker) expression” value ([2]; lower dose, 100 nM) was “effective even at the lower dose”. The “myofibroblast formation / phenotype” value ([2]; lowest effective dose from secondary screen: PPT 5 μM, ASC, BTS, AXD 1 μM, SNC 0.1 μM, TGFβ 1 ng/ml, 72 hours) was “inhibit myofibroblast phenotype”.
